Assay results from patent US9157104B2, “Method to improve phosphate solubilization in plants” (Consiglio Nazionale delle Ricerche, priority 2009, dated 2015).

Legend:
acid phosphatase = experiment: Acid phosphatase activity under P-starved conditions; format: cell-based, S. meliloti; conditions: phosphate starvation; vs 1021 cells; compounds 0.5 mM, 3 hours at 30° C.
[1] = Soluble phosphate release into bacterial free medium containing 5% PR; conditions: bacteria free media with addition of IAA (0.5 mM)
From the text: FIG. 4. Changes in soluble phosphate release into the bacterial free medium containing 5% phosphate rock (PR) as P source (P-limiting conditions for bacteria growing in a minimal media with PR). […] The amounts of each added organic acids derived from the data obtained in HPLC analysis and were reported in the Material and Methods section. Data are the mean±SD of five independent biological experiments (p<0.006). The concentration of soluble phosphate was estimated using a modification of Fiske and Subarrow method as described by […] et al. (37). […] Bacterial free medium was also treated with 0.5 mM IAA solution. A media that simulates growth is a media without bacteria or their supernatant. The media comprises only RP and the organic acids used as purified powder commercially available (SIGMA), the organic acids concentration used are that produced by the bacteria when grown in a defined media (with IAA, or without, or from RFD64).

S. meliloti 1021 = experiment: Microarray gene expression of 1021 cells treated with 0.5 mM compound; conditions: 1021 + 0.5 mM IAA vs untreated 1021; P-sufficient (13 mM);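 further: cells were harvested 3 h after the start of each treatment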
Protocol: For P starvation experiments, cells of 1021 wild-type and RD64 strains were grown at 30° C. to mid exponential phase (OD600=0.6) in RMM broth containing 1% (w/v) mannitol as carbon source and 13 mM P, washed with RMM containing 0 P, resuspended in the same medium and then divided into three cultures. No P (−P), 1.0 mM P (P-starved cells) or 13 mM P (+P cells also named P-sufficient cells) was added into the three cultures, respectively. The P-starved and P-sufficient 1021 wild type cells were treated for 3.0 hours with 0.5 mM IAA. […] To rule out that this bacteria could be partially starved for Trp, RD64 cells were also treated with 0.5 mM Trp and used for microarrays and RT-PCR analyses. […] After 3 hours of each treatment, cell batches were collected, freezed and stored at −80° C. for use in experiments.

S. meliloti cells = experiment: Organic acids exuded by S. meliloti cells (HPLC, GC-MS); format: cell-based; conditions: minimal medium containing 5% PR as the sole phosphate source; IAA 0.5 mM where added
Protocol: For phosphate solubilization experiments 5% Moroccan phosphate rock (PR) (Sigma-Aldrich, cat. No. 32) was used as P source. When 5% PR is used as P source to allow bacterial growth this is described as a P-limiting condition. At least five independent experiments were always performed.
The organic acids were determined by HPLC with a reverse-phase Hypersil GOLD C18 (100×4.6 mm) column (Thermo Electron Corporation). The operating conditions and quantification were previously described (20).
Organic acid fractions collected from HPLC were dried, derivatized to their tert-butyldimethylsilyl (tBDMS) derivatives and analysed on a Micromass GCT mass spectrometer (Waters corp, Manchester, UK) coupled to an Agilent 6890 Series gas chromatograph fitted with 7683 auto-sampler (Agilent Technologies, Palo Alto, Calif.) and ZB-5 ms (Phenomenex, Macclesfield, UK) caplillary column (30 m×0.25 mm I.D.×0.25 μm d.f. with 5 m Guardian). Samples were injected using splitless injection technique at 250° C. and a helium gas flow of 2.0 ml min^−1. The oven was set at 70° C. for 2 min, then ramped at 7° C. min^−1 to 350° C. and held for 5 min. The GC interface and source temperatures were set to 250° C. and EI^+ mass spectra were acquired at 70 eV from 0 to 47 min with an acquisition rate of 1 spectra/sec. Chromatographic peaks were identified either from existing mass spectral and retention time data from standards previously analysed at Rothamsted Research LTD (Harpenden Herts, UK) or from the NIST mass spectral database in conjunction with retention data obtained from the literature (30). Determination of the accurate mass, to within 5 ppm, of M^+, M-15^+, M-57^+ was used to verify analyte identifications. The chromatograms obtained for each sample were compared to the derivatization reagent blank.

[2] = test system: pho operon genes in S. meliloti cells; experiment: Quantitative RT-PCR analysis of pho operon genes; format: cell-based; conditions: compounds 0.5 mM, 3 hours
Protocol: FIG. S1. Quantitative RT-PCR analysis of pho operon genes in S. meliloti cells under P-sufficient conditions (13 mM K-phosphate). The relative expression level was >1 for genes more highly expressed in RD64 and in 1021 cells treated for 3 hours with 0.5 mM IAA, Ind, Trp, ICA and 2,4-D. The relative expression level was <1 for genes more highly expressed in 1021 cells (control). Error bars represent the standard deviation from three independent biological experiments.
FIG. 1. Quantitative RT-PCR analysis of pho operon genes expression in S. meliloti cells under P-starving conditions. The relative expression level was >1 for genes more highly expressed in RD64 and in 1021 cells treated for 3 hours with 0.5 mM IAA, Ind, Trp, ICA and 2,4-D. The relative expression level was <1 for genes more highly expressed in 1021 cells (control). Error bars represent the standard deviation from five independent biological experiments (p<0.05).
Total RNA from P-sufficient and P-starved cells was isolated as previously described (5). cDNA were synthesized with the StrataScript™ reverse transcription reagents (Stratagene) and random hexamers as primers. Quantitative PCR was performed with the Power SYBR PCR Master Mix (Applied Biosystems). Reactions were run on the iCycler iQ (Bio-Rad). The thermo cycling condition were: 15 min at 95° C., 40 cycles of denaturation at 95° C. for 20 s, annealing (20 s) and extension (35 s) at 72° C. Specific primer pairs, designed using the Primer3 software, are shown.
smc02641 and smc00128 were used as housekeeping genes for data normalization in the comparative Ct method as previously described (8). Phosphatase Activity

Which acid phosphatase activity (acid phosphatase) does the source give for `O=C(O)Cc1c[nH]c2ccccc12` [IAA, indole-3-acetic acid] here?
The acid phosphatase activity was “increase”.

And the “concentration of soluble P in bacteria free media” value [1]?
The value was “negligible”.

And the “M (log2 ratio of intensities) Mc01302 rplP” value (S. meliloti 1021)?
The value was −1.862.

And the “M (log2 ratio of intensities) SMa1118 hspC2” value (S. meliloti 1021)?
Its value is 1.296.

And the “M (log2 ratio of intensities) SMb20893 gguB” value (S. meliloti 1021)?
Its value is 1.754.

What about the “M (log2 ratio of intensities) SMb20895 chvE” value (S. meliloti 1021) of the same compound?
The value was 1.425.

What about the “M (log2 ratio of intensities) SMb20922 smb20922” value (S. meliloti 1021) of the same compound?
The value was 1.711.

What about the “M (log2 ratio of intensities) SMb21174 phoT” value (S. meliloti 1021) of the same compound?
Its value is −1.207.

And the “M (log2 ratio of intensities) SMb21177 phoC” value (S. meliloti 1021)?
The value was −0.7939.

What about the “M (log2 ratio of intensities) SMb21183 htpG” value (S. meliloti 1021) of the same compound?
The value was 1.384.

What about the “M (log2 ratio of intensities) SMb21197 oppB” value (S. meliloti 1021) of the same compound?
The value was 1.111.

And the “M (log2 ratio of intensities) SMc00363 rpmI” value (S. meliloti 1021)?
Its value is −0.9807.

What about the “M (log2 ratio of intensities) SMc00364 rplT” value (S. meliloti 1021) of the same compound?
Its value is −0.715.

And the “M (log2 ratio of intensities) SMc00568 rpsF” value (S. meliloti 1021)?
Its value is −0.7616.

What about the “M (log2 ratio of intensities) SMc01103 rbsK” value (S. meliloti 1021) of the same compound?
Its value is 1.2.

And the “M (log2 ratio of intensities) SMc01169 ald” value (S. meliloti 1021)?
Its value is 3.025.

And the “M (log2 ratio of intensities) SMc01291 rpmD” value (S. meliloti 1021)?
The value was −1.237.

And the “M (log2 ratio of intensities) SMc01295 rpsH” value (S. meliloti 1021)?
Its value is −0.8996.

What about the “M (log2 ratio of intensities) SMc01296 rpsN” value (S. meliloti 1021) of the same compound?
Its value is −0.8326.

And the “M (log2 ratio of intensities) SMc01301 rpmC” value (S. meliloti 1021)?
The value was −1.273.

What about the “M (log2 ratio of intensities) SMc01309 rplC” value (S. meliloti 1021) of the same compound?
The value was −0.7247.

And the “M (log2 ratio of intensities) SMc01319 rplJ” value (S. meliloti 1021)?
The value was −1.438.

What about the “M (log2 ratio of intensities) SMc01628 smc01628” value (S. meliloti 1021) of the same compound?
The value was 0.7123.

And the “M (log2 ratio of intensities) SMc02475 smc02475” value (S. meliloti 1021)?
Its value is 0.7339.

What about the “M (log2 ratio of intensities) SMc02514 smc02514” value (S. meliloti 1021) of the same compound?
Its value is 1.764.

What about the “M (log2 ratio of intensities) SMc02729 smc02729” value (S. meliloti 1021) of the same compound?
Its value is 0.8942.

What about the “M (log2 ratio of intensities) SMc02786 smc02786” value (S. meliloti 1021) of the same compound?
Its value is 1.11.

What about the “M (log2 ratio of intensities) SMc03168 smc03168” value (S. meliloti 1021) of the same compound?
The value was 1.165.

What about the “M (log2 ratio of intensities) SMc04087 smc04087” value (S. meliloti 1021) of the same compound?
Its value is 1.593.

What about the “Organic acid content, Fumarate” value (S. meliloti cells) of the same compound?
The value was 1.7 ± 0.1 mg/L.

What about the “Organic acid content, Malate” value (S. meliloti cells) of the same compound?
The value was 86 ± 10 mg/L.

And the “Organic acid content, Succinate” value (S. meliloti cells)?
Its value is 864 ± 79 mg/L.

What about the “expression level of all five pho genes (RT-PCR)” value ([2]; P-starved conditions, vs control 1021) of the same compound?
Its value is “highly induced”.

What about the “phoB regulatory gene expression (qRT-PCR)” value ([2]; P-sufficient (13 mM K-phosphate), vs untreated 1021 cells) of the same compound?
Its value is “down-regulated”.
